Experimental data reported in patent US7893071B2, “Synthesis and evaluation of novel phthalimide mimics as anti-angiogenic” (University of Virginia Patent Foundation, priority 2001, dated 2011).

Assays:
[1] = tested on: angiogenesis induced by basic fibroblast growth factor (bFGF); details: cited from earlier work
[2] = tested on: corneal angiogenesis induced by vascular endothelial growth factor (VEGF); details: cited from earlier work
endothelial cells = details: in vitro; cited from earlier work
[3] = tested on: human vascular endothelial cells (HUVECS); experiment: Endothelial cell proliferation assay ([3H]-thymidine incorporation); assay type: cell-based; details: HUVEC, 20% serum, preliminary IC50 data, read-out: Inhibition of Endothelial Cell Proliferation (IC50 μM)
Protocol: Endothelial Cell Proliferation Assay.
The human vascular endothelial cells (HUVECS) were cultured to peri-confluence (80%) in 20% serum and treated with thalidomide (standard) or its analog (40-400 μM). After 20 h, [^3H]-thymidine (2 μCi/ml) was added to the culture medium for 2-4 h. The [^3H]-thymidine incorporation was stopped with ice-cold PBS (3 washes) and the cells were incubated with cold 10% trichloroacetic acid (TCA) for 10 min at 4° C. The cells were further incubated with TCA at room temperature for 10 min and washed three times with PBS. The cells were solubilized overnight with 1N NaOH and neutralized with an equivalent amount of 1N HCl before radioactivity was determined. The anti-proliferative activity of thalidomide or its analog was computed as a percent inhibition of HUVECS mitogenic response to 20% serum (fetal calf serum).

angiogenesis = details: oral; cited from earlier work

SMILES | IC50 [3] [µM] | other results
O=C1CC[C@H](N2C(=O)c3ccccc3C2=O)C(=O)N1 (single isomer, unassigned) [S(−)-enantiomer of thalidomide] | – | anti-angiogenic activity of enantiomers, bFGF-induced corneal neovascularization ([1]; comparison of enantiomers): strongest anti-angiogenic activity; anti-angiogenic activity of enantiomers, VEGF-induced corneal neovascularization ([2]; comparison of enantiomers): strongest anti-angiogenic activity
O=C1CCC(N2C(=O)c3ccccc3C2=O)C(=O)N1 (stereo not drawn) [Compound 1, thalidomide] | 200 | effect on angiogenesis, bFGF induced corneal micropocket ([1]; rabbit): inhibitory effects; endothelial cell proliferation in treated cultures (endothelial cells): significant decrease; inhibition of corneal angiogenesis ([2]; rabbits, pellet with 500 or 750 ng VEGF, two daily feedings of 200 mg/kg, after the 5th day of treatment, P<0.0001): statistically significant inhibition; effect on angiogenesis, orally in mice models (angiogenesis): inhibitory effects
O=C1c2ccccc2C(=O)N1c1ccc2c(c1)CCC2 [Compound 5] | 85 | –
O=C1c2ccccc2C(=O)N1C1CCCc2ccccc21 (stereo not drawn) [Compound 7] | > 400 | –
CCC(c1cccc2ccccc12)N1C(=O)c2ccccc2C1=O (stereo not drawn) [Compound 29] | 45 | –
CCCCCCC(c1ccc(OC)c(OC)c1)N1C(=O)c2ccccc2C1=O (stereo not drawn) [Compound 32] | < 38.5 | –
CCOc1ccccc1N1C(=O)c2ccccc2C1=O [Compound 50] | 110 | –
Cc1cc(N)ccc1N1C(=O)c2ccc(Cl)cc2C1=O [Compound 51] | 350 | –
O=C1CC(N2C(=O)c3ccccc3C2=O)CC(=O)O1 [Compound 52] | > 400 | –
O=C1NC(=O)c2c1cccc2[N+](=O)[O-] [Compound 53] | > 400 | –
